Patent publication US20120270928A1, “MICRORNA COMPOUNDS AND METHODS FOR MODULATING MIR-21 ACTIVITY” (REGULUS THERAPEUTICS INC., priority 2011, published 2012)
Strand notation (5' to 3'): a small letter for the sugar, then the base; units joined by * are phosphorothioate-linked, units joined directly phosphodiester-linked; [ ] holds rarer units or linkages, { } end groups; capitals alone tell only the bases. e = 2'-O-(2-methoxyethyl) (MOE); l = locked nucleic acid (LNA); k = constrained ethyl (cEt); [5mC] = 5-methylcytosine; d = 2'-deoxy (DNA)

Tests used:
[1] = tested on: miR-21; experiment: miR-21 luciferase sensor assay in Hela cells; format: cell-based; details: for inhibition of miR-21 activity in the luciferase assay (in words) / luciferase value normalized to beta-galactosidase activity: Hela cells
Experimental: The compounds were assessed for miR-21 inhibitory activity in a luciferase assay. A microRNA luciferase sensor construct was engineered using pGL3-MCS2 (Promega). The construct was introduced into Hela cells to test the ability of anti-miR compounds to inhibit activity of miR-21. In this assay, miR-21 present in the Hela cells binds to its cognate site(s) in the luciferase sensor construct, and suppresses luciferase expression. When the appropriate anti-miR is introduced into the cells, it binds to miR-21 and relieves suppression of luciferase expression. Thus, in this assay anti-miRs that are effective inhibitors of miR-21 expression will cause an increase in luciferase expression.
Hela cells (ATCC), stably transfected with a luciferase construct engineered to contain a sequence complementary of miR-21, were seeded in T-170 flasks (BD Falcon) at 3.5*10^6 cells/flask. Hela cells were grown in Dulbecco's Modified Eagle Medium with High Glucose (Invitrogen).
Each flask of Hela cells was transfected with 0.5 ug of a phRL sensor plasmid (Promega) expressing Renilla to be used in normalization. Hela cells were transfected using 20 ul Lipofectamine 2000/flask (Invitrogen). After 4 hours of transfection, cells were washed with PBS and trypsinized Hela cells were plated at 40 k/well in 24 well plates (BD Falcon) and left overnight.
Hela cells were transfected with anti-miRs using Lipofectin (Invitrogen) at 2.5 ul Lipofectin/100 nM ASO/ml Opti-MEM I Reduced Serum Medium (Invitrogen) for 4 hours. After ASO transfection, Hela cells were refed with Dulbecco's Modified Eagle Medium with High Glucose (Invitrogen).
Hela cells are passively lysed and luciferase activity measured using the Dual-Luciferase Reporter Assay System (Promega).
The luciferase assay was performed to test the ability of anti-miRs with the nucleoside patterns described herein to inhibit the activity of miR-21. Results were compared to a ‘mock’ treatment, in which cells received no anti-miR treatment. The experiment was repeated and results of two experimental replicates are shown in the following Table B, as the luciferase value normalized to beta-galactosidase activity.
The luciferase assay was performed as described herein to test the ability of anti-miRs in Table F to inhibit the activity of miR-21. Results were compared to a ‘mock’ treatment, in which cells received no anti-miR treatment. The experiment was repeated and results of two experimental replicates are shown in the following Table D, as fold change in luciferase value relative to the mock treatment.

[2] = tested on: UUO model of kidney fibrosis; experiment: Unilateral ureteral obstruction (UUO) model of kidney fibrosis: kidney collagen 1A1 and collagen 3A1 expression by real-time PCR; format: in vivo, mice; details: UUO; 20 mg/kg at days -5, -3, +3; kidney at day 10
Experimental: Unilateral ureteral obstruction (UUO) is a well-established experimental model of renal injury leading to interstitial fibrosis, and thus is used as an experimental model that is reflective of human kidney disease. UUO is induced by surgically ligating a single ureter. As fibrosis is characterized by an increase in collagen, the presence and extent of kidney fibrosis may be determined by measuring collagen content. Both collagen 1A1 (Col 1A1) and collagen 3A1 (Col 3A1) are measured to assess collagen content. Kidney fibrosis may be visualized by staining tissue samples with picro-sirius red to detect increases in collagen content. Kidney fibrosis may also be observed by measuring the amount of hydroxyproline, which is a major component of collagen, in a sample.
The cEt-containing anti-miR-21 compounds found to be active in the luciferase assay were tested in the UUO model of kidney fibrosis. 25919 comprising 2′-MOE and 2′-fluoro modifications is known to inhibit miR-21 activity in vivo and was included as a positive control. Groups of 8 animals each were treated as follows: UUO only, UUO with PBS, or UUO with anti-miR-21 compound. Relative to the day of the UUO procedure, PBS or anti-miR-21 compound was administered at days −3, −1, and +5. Anti-miR-21 compounds were administered at a dose of 20 mg/kg. As the anti-miR compounds were administered prior to the UUO procedure, this dosing regimen is considered a prophylactic treatment. At day 11, animals were sacrificed and kidney was isolated for measurement of collagen expression. Collagen expression was measured by real-time PCR and normalized first to GAPDH and then to the sham control animals.
The UUO study was repeated to confirm the activity of 25070. The anti-miR was administered subcutaneously at a dose of 20 mg/kg.
Control treatment groups included UUO only (sham) and UUO with PBS administered subcutaneously. An additional control group included UUO with Tween-MC/20 carrier perorally. 25070 administered subcutaneously at dose of 20 mg/kg at 5 days prior to, 2 days prior to, and 3 days after, the UUO procedure. Irbesartan was administered perorally on daily on days 0 through 7 following the UUO procedure. Animals were sacrificed on Day 10 following the UUO procedure. Kidney tissue was collected for measurement of collagen 1A1 and collagen 3A1 expression.
Compounds 25220 and 25221, as well as 25923, were tested in the UUO model for their effects on fibrosis. Groups of 8 animals each were treated as follows: sham surgery, UUO with PBS, UUO with 25220, UUO with 25221, or UUO with 25923. Relative to the day of the UUO procedure, PBS or anti-miR-21 compound was administered at days −5, −3, and +3. Anti-miR-21 compounds were administered at a dose of 20 mg/kg. As the anti-miR compounds were administered prior to the UUO procedure, this dosing regimen is considered a prophylactic treatment. At day 10, animals were sacrificed and kidney was isolated for measurement of collagen expression. Collagen expression was measured by real-time PCR and normalized to GAPDH.

[3] = concentration of anti-miR compound 0.2 (unit not given)
[4] = concentration of anti-miR compound 0.6 (unit not given)
[5] = concentration of anti-miR compound 1.9 (unit not given)
[6] = concentration of anti-miR compound 5.6 (unit not given)
[7] = concentration of anti-miR compound 16.7 (unit not given)
[8] = concentration of anti-miR compound 50.0 (unit not given)
[9] = 500 nM oligonucleotide, two experimental replicates

## AE^MeCSAT^MeCSAGT^MeCSTGATSAAG^MeCSTAS (antisense eA*k[5mC]*dA*dT*k[5mC]*dA*dG*dT*k[5mC]*dT*dG*dA*kT*dA*dA*dG*k[5mC]*dT*kA; further chemistry not given here) [Compound 25924, variation of 25070: 3′-terminal cEt nucleoside and each cytosine is a 5-methyl cytosine]
[1]
  inhibition of miR-21 activity in the luciferase assay (in words): inhibition of miR-21 in a dose-dependent manner
[1]; [3]
  fold change in luciferase value relative to the mock treatment: 1.10 fold change
[1]; [4]
  fold change in luciferase value relative to the mock treatment: 1.25 fold change
[1]; [5]
  fold change in luciferase value relative to the mock treatment: 1.37 fold change
[1]; [6]
  fold change in luciferase value relative to the mock treatment: 7.80 fold change
[1]; [7]
  fold change in luciferase value relative to the mock treatment: 13.01 fold change
[1]; [8]
  fold change in luciferase value relative to the mock treatment: 8.99 fold change

## AE^MeCLAETE^MeCLAEGETE^MeCLTEGEAE^MeTLAEAEGE^MeCLTEAE (antisense eA*l[5mC]*eA*eT*l[5mC]*eA*eG*eT*l[5mC]*eT*eG*eA*lT*eA*eA*eG*l[5mC]*eT*eA) [Compound 25117, variation of 25070: each non-bicyclic nucleoside is 2′-MOE, each cytosine 5-methyl cytosine]
[1]
  inhibition of miR-21 activity in the luciferase assay (in words): not effective inhibitors of miR-21
[1]; [3]
  fold change in luciferase value relative to the mock treatment: 1.05 fold change
[1]; [4]
  fold change in luciferase value relative to the mock treatment: 1.15 fold change
[1]; [5]
  fold change in luciferase value relative to the mock treatment: 1.14 fold change
[1]; [6]
  fold change in luciferase value relative to the mock treatment: 3.64 fold change
[1]; [7]
  fold change in luciferase value relative to the mock treatment: 7.36 fold change
[1]; [8]
  fold change in luciferase value relative to the mock treatment: 2.91 fold change

## AeTe^MeCeAeGeTe^MeCeTeGSASTeASASGe^MeCeUSAS [Compound 25731]
[1]; 4 nM oligonucleotide
  luciferase value normalized to beta-galactosidase activity: 32
[1]; 20 nM oligonucleotide
  luciferase value normalized to beta-galactosidase activity: 39
[1]; 100 nM oligonucleotide
  luciferase value normalized to beta-galactosidase activity: 38
[1]; [9]
  luciferase value normalized to beta-galactosidase activity: 59
[1]; .16 nM oligonucleotide
  luciferase value normalized to beta-galactosidase activity: 34
[1]; .8 nM oligonucleotide
  luciferase value normalized to beta-galactosidase activity: 45

## AECSATCSAGTCSTGAUSAAGCSUsAS (ACATCAGTCTGATAAGCTA; sugar and backbone modifications, chemistry not fully specified) [Compound 25221]
[2]
  collagen 1A1 expression (FIG. 2A, in words): reduced collagen 1A1 and collagen 3A1 expression by a stastically significant amount
  collagen 3A1 expression (FIG. 2B, in words): reduced collagen 1A1 and collagen 3A1 expression by a stastically significant amount

## Te^MeCASA^MeCAST^MeCAGST^MeCTGASTAAGS^MeCTAe (TCAACATCAGTCTGATAAGCTA; cEt, 5-methyl C and phosphorothioate modifications, code letters not given here, further chemistry not given here) [Compound 25067]
[1]; 4 nM oligonucleotide
  luciferase value normalized to beta-galactosidase activity: 43
[1]; 20 nM oligonucleotide
  luciferase value normalized to beta-galactosidase activity: 41
[1]; 100 nM oligonucleotide
  luciferase value normalized to beta-galactosidase activity: 30
[1]; [9]
  luciferase value normalized to beta-galactosidase activity: 42
[1]; .16 nM oligonucleotide
  luciferase value normalized to beta-galactosidase activity: 38
[1]; .8 nM oligonucleotide
  luciferase value normalized to beta-galactosidase activity: 23

## AE^MeCSAETE^MeCSAEGETE^MeCSTEGEAE^MeTSAEAEGE^MeCSTEAE (antisense eA*k[5mC]*eA*eT*k[5mC]*eA*eG*eT*k[5mC]*eT*eG*eA*kT*eA*eA*eG*k[5mC]*eT*eA; further chemistry not given here) [Compound 25116, variation of 25070: each non-bicyclic nucleoside is 2′-MOE, each cytosine 5-methyl cytosine]
[1]
  inhibition of miR-21 activity in the luciferase assay (in words): not effective inhibitors of miR-21
[1]; [3]
  fold change in luciferase value relative to the mock treatment: 1.06 fold change
[1]; [4]
  fold change in luciferase value relative to the mock treatment: 0.98 fold change
[1]; [5]
  fold change in luciferase value relative to the mock treatment: 1.06 fold change
[1]; [6]
  fold change in luciferase value relative to the mock treatment: 2.47 fold change
[1]; [7]
  fold change in luciferase value relative to the mock treatment: 5.64 fold change
[1]; [8]
  fold change in luciferase value relative to the mock treatment: 1.98 fold change

## Ae^MeCAST^MeCAGST^MeCTGASTASAGS^MeCTAe (ACATCAGTCTGATAAGCTA; listed as DNA, chemistry not fully specified) [Compound 25071]
[1]; 4 nM oligonucleotide
  luciferase value normalized to beta-galactosidase activity: 50
[1]; 20 nM oligonucleotide
  luciferase value normalized to beta-galactosidase activity: 63
[1]; 100 nM oligonucleotide
  luciferase value normalized to beta-galactosidase activity: 53
[1]; [9]
  luciferase value normalized to beta-galactosidase activity: 42
[1]; .16 nM oligonucleotide
  luciferase value normalized to beta-galactosidase activity: 48
[1]; .8 nM oligonucleotide
  luciferase value normalized to beta-galactosidase activity: 36

## AECSATCSASGTCSUSGAUSASAGCSUsAE (ACATCAGTCTGATAAGCTA; sugar and backbone modifications, chemistry not fully specified) [Compound 25220]
[2]
  collagen 1A1 expression (FIG. 2A, in words): reduced collagen 1A1 and collagen 3A1 expression by a stastically significant amount
  collagen 3A1 expression (FIG. 2B, in words): reduced collagen 1A1 and collagen 3A1 expression by a stastically significant amount

## AE^MeCSAT^MeCSAGT^MeCSTGATSAAG^MeCSTAE (antisense ACATCAGTCTGATAAGCTA; MOE ends, cEt, 5-methyl C, unmarked nucleosides not given here, further chemistry not given here) [Compound 25922, variation of 25070: each cytosine is a 5-methyl cytosine]
[1]
  inhibition of miR-21 activity in the luciferase assay (in words): inhibition of miR-21 in a dose-dependent manner
[1]; [3]
  fold change in luciferase value relative to the mock treatment: 1.02 fold change
[1]; [4]
  fold change in luciferase value relative to the mock treatment: 1.10 fold change
[1]; [5]
  fold change in luciferase value relative to the mock treatment: 1.34 fold change
[1]; [6]
  fold change in luciferase value relative to the mock treatment: 8.81 fold change
[1]; [7]
  fold change in luciferase value relative to the mock treatment: 11.60 fold change
[1]; [8]
  fold change in luciferase value relative to the mock treatment: 11.46 fold change

## AeTe^MeCeASGSTe^MeCeTeGSASTeAeASGS^MeCeTeAe [Compound 25077]
[1]; 4 nM oligonucleotide
  luciferase value normalized to beta-galactosidase activity: 45
[1]; 20 nM oligonucleotide
  luciferase value normalized to beta-galactosidase activity: 33
[1]; 100 nM oligonucleotide
  luciferase value normalized to beta-galactosidase activity: 42
[1]; [9]
  luciferase value normalized to beta-galactosidase activity: 40
[1]; .16 nM oligonucleotide
  luciferase value normalized to beta-galactosidase activity: 34
[1]; .8 nM oligonucleotide
  luciferase value normalized to beta-galactosidase activity: 33
